# “And” between values parts separate entries of the source, which are not always exact repeats. Identical values can stand only once.
# Columns and labels:
# [1] = tested on: L1210/ARAC leukemic cells; experiment: Survival of CD2F1 mice bearing L1210/ARAC leukemia; type: in vivo; conditions: i.v. 10^4 L1210/ARAC cells, 0.5% genistein in diet and/or DAC 2 mg/kg 8 h i.v. infusion on day 1
# Method: (§1) In vivo experiments. Male CD2F1 mice (24-28 g) were purchased from Taconic Biotechnology (Germantown, N.Y., USA). Mice were acclimatized to housing conditions at least 2 weeks before experiments. They received food and water ad libitum. For transplantation of leukemia cells in mice, intraperitonal (i.p.) injections of 10^4 L1210 or L1210/ARAC cells in RPMI-1640 medium were performed weekly into the CD2F1 mice. Seven days later, the ascetic fluid was obtained from the mice and a cell count of the leukemic cells was performed with a haemocytometer prior to subsequent transplantation. Mice were injected intravenously (i.v.) with 0.1 ml of L1210 or L1210/ARAC (10^4) cells. Control groups that received the control diet 2016 (Teklad Global 16% Protein Rodent Diet™; Harlan Teklad, Madison Wis.) were either treated or not with DAC. To test the effect of genistein in the diet, mice were fed with 2016 diet supplemented with 0.5% genistein (Harlan Teklad) and treated with either DAC or the vehicle alone. Mice were acclimated to the genistein-enriched regimen over a 10-days period before injection of leukemic cells. A Harvard apparatus compact infusion pump was used at a flow rate of 0.22 ml/h via 25-gauge needle into the lateral tail vein. DAC was given at 2 mg/kg for 8 h. Decitabine was prepared fresh before each experiment, dissolved in ½ PBS and sterilized by 0.2 μm filtration. Mice were placed in a restrainer cage during treatment with access to food. Toxicity was evaluated by body weight loss. Mice fed with genistein-enriched diet kept the same regimen during all the experiment. The survival time of each group of mice was monitored and the increased in life span (ILS) calculated.
# Statistical analyses. In order to evaluate whether the inter-group variations were random, one-way ANOVA testing was performed. The p value was evaluated accordingly to Tukey's method (Hastings, C et al. (1947). Ann. Math. Statist. 18,413-426). A p value≦0.05 was taken for statistical significance. Valeriote and Lin's method (Valeriote, F and Lin, H. S. 1975. Cancer Chemother. Rep. 59(5): 895-900) was used to determine if the interaction observed between drugs in the clonogenic assays was additive, synergistic or antagonistic.
# [2] = tested on: MOLT-3 lymphoid human leukemic cells; experiment: Inhibition/loss of clonogenicity in soft agar, MOLT-3; type: cell-based; conditions: 48 h
# Method: (§2) Cell lines and drug exposure. Human myeloid (HL-60) and lymphoid (MOLT-3) leukemic cells were obtained from ATCC (ATCC #: CRL-1552; Manassas, Va. USA). MBA-MD-231 and Dld-1 cells were also used. Human cell lines were cultured in RPMI-1640 medium (Invitrogen, Burlington, Ontario) supplemented with 10% heat-inactivated fetal bovine serum (Wisent, St-Bruno, Quebec). The doubling times of HL-60 and MOLT-3 were 16-18 h and 23-24 h, respectively, whereas for both MBA-MD-231 and Dld-1 cells it was 24-27 h. The murine lymphoid leukemic cell line L1210 (ATCC #: CCL-219; Brandes et al., (1966). J Natl Cancer Inst. 37(4): 467-85) was cultured in RPMI-1640 with 5% heat-inactivated fetal calf serum and with 6 μM of 2-mercaptoethanol. The doubling time of the L1210 cells was about 10 h. From this cell line, a clone fully resistant to […], identified herein as L1210/ARAC, was generated after exposure of increasing doses of cytosine arabinoside for a period of 3 months (Schabel et al., (1984). Cancer Treat. Rep 67: 905-922). The doubling time of the L1210/ARAC cells was about 12 h. Human lung adenocarcinoma cells H2087, and Calu-6 non-small cell lung cancer cells, were obtained from ATCC (ATCC #: CRL-5922; Manassas, Va. USA) and cultured in DMEM and RPMI without HEPES, respectively. The cells were trypsinized with 0.25% Trypsin-EDTA (Invitrogen, Grand Island, N.Y.). The doubling time of the H2087 cells was about 35 h. Cell lines were incubated at 37° C. in 5% CO2 atmosphere.
# (§3) Genistein (LC Laboratories, Woburn, Mass.) was dissolved in DMSO (Sigma, Oakville, Ontario) to prepare stock solutions of 2 and 20 mM and kept frozen at −20° C. until use. Decitabine (DAC, Dacogen™, 5-aza-2′-deoxycytidine) at 1000 μg/ml in PBS was kept at −80° C. […]
# (§4) Inhibition of clonogenicity. […] After 7 d of incubation for murine cell lines or 15 d for human cell lines, the number of colonies (>50 cells) was counted. […] The experiments were repeated three times and expressed as mean±S.E.M.
# (§5) Statistical analyses. […] The p value was evaluated accordingly to Tukey's method (Hastings, C et al. (1947). Ann. Math. Statist. 18,413-426). […]
# [3] = tested on: HL-60 myeloid human leukemic cells; experiment: Inhibition/loss of clonogenicity in soft agar, HL-60; type: cell-based; conditions: 48 h
# Method: as §2, §3, §4, §5
# [4] = tested on: human lung carcinoma cell line (CALU-6); experiment: Colony formation assay, CALU-6; type: cell-based
# Method: as §2, with “atmosphere. […]” for “atmosphere.”
# For human lung carcinoma H2087 cells, 100 cells were placed in wells of a 6-well dish (day 0); for Calu-6, MBA-MD-231 and Dld-1, 200 cells were seeded. […] Fresh medium (2 ml) was added and after 16-19 d colonies were stained with 0.5% methylene blue in 50% methanol and counted. […] The experiments were repeated three times and expressed as mean±S.D or mean±SEM for Calu-6, MBA-MD-231 and Dld-1 cells.
# as §5
# [5] = tested on: H2087 lung carcinoma cells; experiment: Colony formation assay, H2087; type: cell-based, human; conditions: decitabine 220 nM and/or genistein 5 μM, 24 h, mean ± S.D., relative to untreated cells
# Method: as §2
# (§6) Genistein (LC Laboratories, Woburn, Mass.) was dissolved in DMSO (Sigma, Oakville, Ontario) to prepare stock solutions of 2 and 20 mM and kept frozen at −20° C. until use. Decitabine (DAC, Dacogen™, 5-aza-2′-deoxycytidine) at 1000 μg/ml in PBS was kept at −80° C. Before each experiment, Decitabine was diluted at 1 μg/ml (for murine leukemic cell lines), 10 μg/ml (for human leukemic cells), or 100 μg/ml (for lung carcinoma cells) with sterile PBS and kept on ice until use.
# For human lung carcinoma H2087 cells, 100 cells were placed in wells of a 6-well dish (day 0); for Calu-6, MBA-MD-231 and Dld-1, 200 cells were seeded. On day 1, Decitabine (50 ng/ml) and genistein (5 μM) were added concomitantly to the cells for 24 h. Drugs were then removed and wells were rinsed with 1 ml of medium. Fresh medium (2 ml) was added and after 16-19 d colonies were stained with 0.5% methylene blue in 50% methanol and counted. The inhibition/loss of clonogenicity (%) was expressed relative to control (untreated) cells. The experiments were repeated three times and expressed as mean±S.D or mean±SEM for Calu-6, MBA-MD-231 and Dld-1 cells.
# as §5
# [6] = tested on: L1210 murine lymphoid leukemic cells; experiment: Inhibition/loss of clonogenicity in soft agar, L1210; type: cell-based
# Method: as §2, §6
# Inhibition of clonogenicity. It is known that cancer cells form clones in soft agar (clonogenicity). Irreversible eradication of the clonogenicity of cancer stem cells is one of the objectives of chemotherapy since it is related to cell proliferation potential. Human and murine leukemic cell lines in log phase at 5×10^4 cells/ml were placed in tissue culture flasks and exposed to the drug combinations for 48 and 24 h respectively. […] After 7 d of incubation for murine cell lines or 15 d for human cell lines, the number of colonies (>50 cells) was counted. […] The experiments were repeated three times and expressed as mean±S.E.M.
# as §5
# [7] = tested on: L1210/ARAC cells (DAC-resistant clone of L1210); experiment: Inhibition/loss of clonogenicity in soft agar, L1210/ARAC; type: cell-based, murine; conditions: alone or with DAC 4.4 nM
# Method: as §2, with “The doubling time of the L1210/ARAC cells was about 12 h. Human lung adenocarcinoma cells H2087, and Calu-6 non-small cell lung cancer cells, were obtained from ATCC (ATCC #: CRL-5922; Manassas, Va. USA) and cultured in DMEM and RPMI without HEPES, respectively. The cells were trypsinized with 0.25% Trypsin-EDTA (Invitrogen, Grand Island, N.Y.). The doubling time of the H2087 cells was about 35 h. Cell lines were incubated at 37° C. in 5% CO2 atmosphere.” left out
# as §4, §5
# [8] = tested on: L1210 leukemic cells; experiment: Survival of CD2F1 mice bearing L1210 leukemia; type: in vivo; conditions: i.v. 10^4 L1210 cells; for Increase in life span (%): 0.5% genistein in diet and/or DAC 2 mg/kg 8 h i.v. infusion on day 1
# Method: as §1, with “For transplantation of leukemia cells in mice, intraperitonal (i.p.) injections of 10^4 L1210 or L1210/ARAC cells in RPMI-1640 medium were performed weekly into the CD2F1 mice.” left out, “Control groups that received the control diet 2016 (Teklad Global 16% Protein Rodent Diet™; Harlan Teklad, Madison Wis.) were either treated or not with DAC. To test the effect of genistein in the diet, mice were fed with 2016 diet supplemented with 0.5% genistein (Harlan Teklad) and treated with either DAC or the vehicle alone.” left out
# Statistical analyses. In order to evaluate whether the inter-group variations were random, one-way ANOVA testing was performed. […] A p value≦0.05 was taken for statistical significance.
# [9] = genistein 0.1 μM, alone or with DAC 44 nM
# [10] = genistein 1 μM, alone or with DAC 44 nM
# [11] = DAC 44 nM alone, relative to control cells
smiles,measurement,setting,value
O=c1c(-c2ccc(O)cc2)coc2cc(O)cc(O)c12 [genistein],Increase in life span (%),[1],7.88%
same,Survival time,[1],10.39 ± 1.01 days
same,loss of clonogenicity,[2]; [9],1%
same,loss of clonogenicity,[2]; [10],12%
same,loss of clonogenicity,[3]; [9],1%
same,loss of clonogenicity,[3]; [10],15%
same,Loss of clonogenicity (%),"[4]; genistein 0.1 μM, alone or with decitabine 10 ng/ml",4.9%
same,Loss of clonogenicity (%),"[4]; genistein 10 μM, alone or with decitabine 10 ng/ml",31.7%
same,Loss of clonogenicity (%),[5],3.8%
same,Loss of clonogenicity (%),[5]; listed as Genistein,3.8 ± 9.4%
same,loss of clonogenicity,"[6]; genistein 0.1 μM, alone or with DAC 4.4 nM",2%
same,loss of clonogenicity,"[6]; genistein 1 μM, alone or with DAC 4.4 nM",13%
same,loss of clonogenicity,[7]; genistein 0.1 μM,2%
same,loss of clonogenicity,[7]; genistein 1 μM,11%
same,Increase in life span (%),[8],7.0. (p < 0.001) %
same,survival time after injection of leukemia,[8]; 0.5% genistein-enriched diet,7.85 ± 0.10 days
"Nc1ncn([C@H]2C[C@H](O)[C@@H](CO)O2)c(=O)n1 [DAC, 4-Amino-1-(2-deoxy-β-D-ribofuranosyl)-1,3,5-triazin-2(1H)-one, reference compound]",Increase in life span (%),[1],−2.3%
same,Survival time,[1],9.42 ± 0.50 days
same,loss of clonogenicity,[2]; [11],40% and 37%
same,loss of clonogenicity,[3]; [11],20% and 17%
same,Loss of clonogenicity (%),[4]; decitabine 10 ng/ml alone,36.6%
same,Loss of clonogenicity (%),[5],60%
same,Loss of clonogenicity (%),[5]; listed as Decitabine,60 ± 4.1%
same,loss of clonogenicity,"[6]; DAC 4.4 nM alone, relative to control cells",28%
same,loss of clonogenicity,"[6]; DAC 4.4 nM alone, relative to control cells, listed as Decitabine",about 30%
same,Increase in life span (%),[8],66.8%

# Source: patent US7985738B2, “Cytosine nucleoside analogs and isoflavones and uses thereof” (Institut National de la Recherche Scientifique, priority 2007, dated 2011)
